# Values quoted from earlier work in patent US9615750B2, “Methods and compositions for carrier agents and clearing agents used in optoacoustic imaging systems” (SENO MEDICAL INSTRUMENTS, INC., priority 2012, dated 2017).
# Conditions: for Solubility: in words, solvents as named
Molecule,Solubility,Solubility in water
CN1CCCN(C)C1=O [Cyclic Urea],Soluble in water,
Keratan Sulfate,Water Soluble,
Polyoxyethylene (20) sorbitan [TWEEN ® 20],Insoluble in Mineral Oil.,
Chondroitin Sulfate,Water Soluble,

# Results, then the molecule that gave them:
Solubility,Solubility in water,Molecule
Water Soluble,,Heparin [reference compound]
,soluble 4 g/100 ml,OCc1ccccc1 [Benzyl alcohol]
,> 100 g/100 ml),NC(N)=O [Urea]
